Where a name gives a salt, the structure may show the parent alone. Active and inactive are the calls of the source.
Key:
[1] = Dose-response inhibition of insulin secretion in a rat insulinoma line at 5 mM glucose (AID 1117331); type: functional, cell-based; settings: INS-1E
Protein skinhead-1 = target: T1, Protein skinhead-1 (Caenorhabditis elegans, UniProt P34707); type: functional
T1 sequence (P34707 whole entry): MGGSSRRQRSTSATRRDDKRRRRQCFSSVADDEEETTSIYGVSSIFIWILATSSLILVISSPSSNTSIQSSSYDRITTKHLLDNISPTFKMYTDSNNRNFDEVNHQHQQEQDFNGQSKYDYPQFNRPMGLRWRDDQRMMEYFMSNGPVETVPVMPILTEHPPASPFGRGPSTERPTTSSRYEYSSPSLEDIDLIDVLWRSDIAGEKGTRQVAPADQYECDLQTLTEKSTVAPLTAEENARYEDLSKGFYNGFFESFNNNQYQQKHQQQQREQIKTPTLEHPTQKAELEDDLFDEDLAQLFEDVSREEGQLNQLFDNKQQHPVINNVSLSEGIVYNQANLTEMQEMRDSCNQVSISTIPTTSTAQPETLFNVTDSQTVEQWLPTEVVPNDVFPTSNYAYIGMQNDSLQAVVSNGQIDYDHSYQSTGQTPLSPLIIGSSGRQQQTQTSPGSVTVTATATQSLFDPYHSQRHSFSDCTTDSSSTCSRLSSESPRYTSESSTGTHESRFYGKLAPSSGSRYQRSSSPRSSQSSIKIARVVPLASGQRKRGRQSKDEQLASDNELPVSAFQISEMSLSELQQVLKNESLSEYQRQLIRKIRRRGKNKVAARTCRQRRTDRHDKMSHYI

[2] = target: T2, Oxysterols receptor LXR-beta (Homo sapiens, UniProt P55055); type: functional, cell-based;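 further: Cell-based luminescence dose-response assay of agonist activity at LXR, run as a confirmatory counterscreen to a daf-12 agonist screen; HEK293 cells with Gal4-LXR fusion and GAL4-driven luciferase reporter; agonist potency from rising luciferase signal of a Gal4-LXR reporter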
T2 sequence (P55055 whole entry): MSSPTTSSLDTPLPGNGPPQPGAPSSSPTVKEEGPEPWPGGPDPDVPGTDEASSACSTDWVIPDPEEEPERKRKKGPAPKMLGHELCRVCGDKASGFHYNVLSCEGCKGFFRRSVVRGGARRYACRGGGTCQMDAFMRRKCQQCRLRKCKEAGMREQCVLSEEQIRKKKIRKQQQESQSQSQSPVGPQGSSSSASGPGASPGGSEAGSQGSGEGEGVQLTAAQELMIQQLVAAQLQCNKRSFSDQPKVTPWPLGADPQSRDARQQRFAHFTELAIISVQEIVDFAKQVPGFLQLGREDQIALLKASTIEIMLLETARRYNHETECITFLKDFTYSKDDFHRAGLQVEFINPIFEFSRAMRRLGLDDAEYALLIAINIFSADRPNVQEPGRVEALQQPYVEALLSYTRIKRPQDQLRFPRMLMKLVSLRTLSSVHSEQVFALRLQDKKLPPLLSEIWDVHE

[3] = half-maximal inhibitory concentration for glucagon-like peptide-1 release, STC-1 cell line, dose-response (AID 1117345); type: functional, cell-based
[4] = Glucagon-like peptide 1 release potency, NCI-H716 cell line, dose-response, half-maximal inhibitory concentration (AID 1117344); type: functional, cell-based
[5] = target: T3, Aryl hydrocarbon receptor (Homo sapiens, UniProt P35869); settings: Potency;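 further: confirmatory quantitative high-throughput screen measuring activation of the AhR signaling pathway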
T3 sequence (P35869 whole entry): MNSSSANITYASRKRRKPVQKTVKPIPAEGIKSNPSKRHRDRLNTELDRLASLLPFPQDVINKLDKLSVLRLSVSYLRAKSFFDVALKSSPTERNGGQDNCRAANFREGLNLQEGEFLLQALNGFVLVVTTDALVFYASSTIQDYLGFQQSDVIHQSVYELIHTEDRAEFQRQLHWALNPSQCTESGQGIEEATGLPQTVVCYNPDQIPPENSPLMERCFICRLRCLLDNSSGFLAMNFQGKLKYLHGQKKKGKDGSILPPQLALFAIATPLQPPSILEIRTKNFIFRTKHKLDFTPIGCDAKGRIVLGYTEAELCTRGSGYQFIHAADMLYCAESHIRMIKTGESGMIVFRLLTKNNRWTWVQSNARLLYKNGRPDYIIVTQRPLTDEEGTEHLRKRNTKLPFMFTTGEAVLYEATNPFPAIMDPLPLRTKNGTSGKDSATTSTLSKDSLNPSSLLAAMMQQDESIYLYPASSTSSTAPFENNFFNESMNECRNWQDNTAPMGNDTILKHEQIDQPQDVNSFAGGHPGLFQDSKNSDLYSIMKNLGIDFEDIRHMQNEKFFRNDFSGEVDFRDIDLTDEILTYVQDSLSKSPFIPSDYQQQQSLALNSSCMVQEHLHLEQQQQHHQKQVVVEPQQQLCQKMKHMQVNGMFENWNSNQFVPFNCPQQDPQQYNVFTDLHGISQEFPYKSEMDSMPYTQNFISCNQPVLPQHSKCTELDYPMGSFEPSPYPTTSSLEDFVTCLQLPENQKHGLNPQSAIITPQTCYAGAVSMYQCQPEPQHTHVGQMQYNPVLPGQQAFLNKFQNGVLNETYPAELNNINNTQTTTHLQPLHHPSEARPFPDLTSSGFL

[6] = inhibitors of LMP1-driven NF-kB reporter, dose response, cell-based, EBV LMP1, luciferase, dry powder, set 2 (AID 624361); type: functional
[7] = target: NAD-dependent protein deacylase sirtuin-5, mitochondrial (Homo sapiens, UniProt Q9NXA8); assay: SIRT5 deacylase inhibitors, dose response, biochemical, fluorescence imaging, cherry-pick, set 6 (AID 720597)
NAD-dependent protein deacylase sirtuin-5, mitochondrial, sequence (Q9NXA8 whole entry): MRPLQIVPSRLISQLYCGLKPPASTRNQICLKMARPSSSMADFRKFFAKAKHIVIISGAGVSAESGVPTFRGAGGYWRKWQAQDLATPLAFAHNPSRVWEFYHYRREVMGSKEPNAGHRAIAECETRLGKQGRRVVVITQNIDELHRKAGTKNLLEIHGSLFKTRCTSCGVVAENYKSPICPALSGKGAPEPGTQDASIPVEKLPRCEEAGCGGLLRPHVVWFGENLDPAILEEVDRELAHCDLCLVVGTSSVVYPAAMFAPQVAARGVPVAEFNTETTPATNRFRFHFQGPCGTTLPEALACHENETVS

[8] = target: Glutathione-S-transferase (Schistosoma japonicum, UniProt Q26513); assay: biotin-GST/anti-GST TR-FRET signal inhibitors, dose response, artefact control for Vif-APOBEC3G degradation inhibitor project, biochemical (AID 1117362); type: functional
Glutathione-S-transferase, sequence (Q26513 whole entry): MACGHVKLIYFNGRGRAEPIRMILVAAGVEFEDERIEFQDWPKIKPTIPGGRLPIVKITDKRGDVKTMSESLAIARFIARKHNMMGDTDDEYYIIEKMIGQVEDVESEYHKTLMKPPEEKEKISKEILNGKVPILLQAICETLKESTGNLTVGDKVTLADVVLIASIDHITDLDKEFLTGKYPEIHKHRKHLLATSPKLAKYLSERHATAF

[9] = P. falciparum Dd2 growth inhibitors, dose response, SYBR Green, dry powder samples, set 4 (AID 1159572); type: functional, cell-based

CCN(CC)C(C)CN1c2ccccc2Sc2ccccc21 (stereo unspecified) [ETHOPROPAZINE HYDROCHLORIDE]
IC50 [1]: > 33.3 µM (inactive)

Fc1ccc(-c2nnc(-c3ccc4ccccc4c3)o2)cc1
IC50 (Protein skinhead-1): > 100 µM (inactive)
EC50 [2]: > 67.5 µM (inactive)
EC50 (cells): > 67.5 µM (inactive)

CC(C)(Oc1ccc(C2CC2(Cl)Cl)cc1)C(=O)O (stereo unspecified) [CIPROFIBRATE]
IC50 [3]: > 40 µM (inactive)
IC50 [4]: > 40 µM (inactive)
AC50 [5]: 70.8 µM (inconclusive)

Cc1noc(C)c1S(=O)(=O)Nc1ccc2c(c1)C(=O)N([C@H](C)CO)C[C@@H](C)[C@H](CN(C)Cc1ccc(C(F)(F)F)cc1)OCCCC[C@@H](C)O2
AbsAC35 [6]: 39.54 µM
AC50 [7]: > 30 µM (inactive)

Cc1nc2c(Cl)cccc2c(O)c1CN1CCCC1
IC50 [8]: > 100 µM (active)

COc1ccc2c3c([nH]c2c1)[C@H](CO)N(C(C)=O)CC31CCN(Cc2ccccc2Cl)CC1
AC50 [9]: 17.1 µM (active)
